Experimental data as given in patent US20250032641A1, “IMMUNE- STIMULATING COMPOUNDS LINKED TO GLYCOGEN-BASED POLYSACCHARIDE NANOPARTICLES FOR SENSITIZING CANCER CELLS TO A CHEMOTHERAPEUTIC DRUG” (GLYSANTIS BIOTECH INC., priority 2020, published 2025).

How the values were obtained:
[1] = test system: IFN-beta, ISG15, CXCL10 transcripts in SKOV3, SKBR3, MCF7, HeLa, B16F10 cells; test: qRT-PCR transcript levels of interferon-stimulated genes / innate immune response in cancer cell lines; format: cell-based, human; details: cancer cells (Breast, Ovarian, Cervical, Melanoma); same doses bound and unbound
Protocol: SKOV-3 cells were treated with media alone (CTRL), 125 ng/ml of pI:pC, or 125 ng/mL of poly IC complexed with 250 ng/ml of PhG (poly IC:PhG) for 6 hours. Transcript levels were measured using qRT-PCR.
SKRBR-3 cells were treated with media alone (CTRL), 2.5 μg/mL of pI:pC, or 2.5 μg/mL of poly IC complexed with 5 μg/mL of PhG (poly IC:PhG) for 6 hours. Transcript levels were measured using qRT-PCR.
MCF-7 cells were treated with media alone (CTRL), 5 μg/mL of pI:pC, or 5 μg/mL of poly IC complexed with 10 μg/mL of PhG (poly IC:PhG) for 6 hours. Transcript levels were measured using qRT-PCR.
HeLa cells were treated with media alone (CTRL), 5 μg/mL of pI:pC, or 5 μg/mL of poly IC complexed with 10 μg/mL of PhG (poly IC:PhG) for 6 hours. Transcript levels were measured using qRT-PCR.
Hela cells were treated with media alone (CTRL), 5 μg/mL of pI:pC, or 5 μg/mL of poly IC complexed with 10 μg/mL of PhG (poly IC:PhG) for 6 hours. Transcript levels were measured using qRT-PCR. […]
Cells were plated in 6-well plates at 1×10E6 cells per well in DMEM and allowed to attach overnight. […] All transcripts were normalized to actin and quantified relative to mock treated.

[2] = test system: pI:pC resistant SKOV-3 cells; test: Cell viability by alamar blue, carboplatin alone or combined with free or nanoparticle bound pI:pC; format: cell-based; details: carboplatin combination, 72 hours
Protocol: Twenty-four (24) hours post seeding, cells were left untreated, or treated with EC50 carboplatin, 125 ng/ml pI:pC, 125 ng/ml pI:pC ionically bound to glycogen nanoparticles (1:1 w/w), or the combination of EC50 carboplatin and 125 ng/ml pI:pC, or EC50 carboplatin and 125 ng/ml nanoparticle bound pI:pC, and cell viability was measured after 72 hours incubation.
Cell viability was measured by alamar blue of pI:pC resistant SKOV-3 cells treated with carboplatin alone, or in combination with “free” pI:pC or glycogen nanoparticle bound pI:pC. SKOV-3 cells were plated in a 12-well dish at 1.5×10^6 per well. Twenty-four (24) hours post seeding, cells were left untreated, or treated with EC50 carboplatin, 125 ng/ml pI:pC, 125 ng/ml pI:pC ionically bound to glycogen nanoparticles (1:1 w/w), or the combination of EC50 carboplatin and 125 ng/ml pI:pC, or EC50carboplatin and 125 ng/ml nanoparticle bound pI:pC. Cells were incubated at 37° C., 5% CO2 for 72 hours, and cell viability was measured by alamar blue assay according to the manufacturer's protocol (Invitrogen).

In the case of “polyinosinic:polycytidylic acid [unbound pI:pC]”, the innate immune response [1] is reported as “ineffective” and the “sensitization of pI:pC resistant cells to a chemotherapeutic drug” value [2] is reported as “ineffective”.
